Assay results taken from patent US20030190368A1, “METHODS OF DIAGNOSIS AND TRIAGE USING CELL ACTIVATION MEASURES” (priority 1998, published 2003).
“Also recorded” adds a separate entry of the source.

What was measured:
[1] = tested on: human neutrophils; experiment: Neutrophil response to fluid shear-stress in vitro; type: cell-based
Method: In these experiments the shear-stress was kept sufficiently low (˜1 dyn/cm2) to avoid significant viscoelastic cell deformation. Fresh leukocytes from pin-pricked blood of healthy volunteers were collected in Vacutainer tubes (sodium heparin pre-treated, Becton Dickinson, Franklin Lakes, N.J.). The red blood cells were allowed to sediment at room temperature for about 30 minutes. The supernatant mixture of 1 part platelets and leukocytes was resuspended in 20 parts Plasma Lyte (Baxter Healthcare Corp., Deerfield, Ill.). Neutrophils, monocytes and lymphocytes were identified by their morphology (125× magnification). All experiments were performed within four hours following blood collection.
100 μl of the cell preparation was deposited into a small chamber with a transparent bottom on an inverted microscope (Leitz Diavert, Germany) with a 50× objective. […]
Filmed neutrophils presented various responses to shear-stress. In order to quantify the results neutrophil response was divided into three categories: […]

[2] = tested on: rats subjected to SAO shock; experiment: Splanchnic arterial occlusion (SAO) shock with Futhan pretreatment; type: in vivo, rat
Description: Rats randomly selected were weighed and anesthetized, and arterial and venous catheters were inserted which were used for blood pressure measurements and anesthesia, respectively. […] At the termination of the experiments arterial blood was drawn for determination of plasma peroxide concentration using a peroxide electrode measurement technique.
Male Wistar rats (250-320 g) were randomly divided into SAO shock (n=7) and SAO shock sham groups (n=6). Animals were cannulated via the femoral arteries and vein under general anesthesia using pentobarbital (50 mg/kg i.m.). No heparin was injected other than that needed to ensure open catheter lines (10U/ml Plasma-Lyte). One femoral artery was connected up to monitor continuous mean arterial pressure (MAP), while the other was used for the collection of blood samples. […] MAP and heart rate were recorded.

[3] = tested on: rats; experiment: Bolus injection of pancreatic homogenate (mock SAO shock); type: in vivo
Method: A bolus injection of incubated pancreatic homogenate was tested for its ability to lead to circulatory shock in the rat. The ability of Futhan pretreatment to mitigate shock induced in this manner was also tested. A mock SAO shock protocol was repeated as previously described, with either 60 min Futhan or saline pretreatment and a 2 ml bolus injection of either pancreatic homogenate or low-molecular weight pancreatic homogenate injected in lieu of arterial clamping.
The SAO shock experiments were repeated with the bolus injection of pancreatic homogenate in an effort to simulate the “unclamping” of the arteries and liberation of pancreatic components into the circulation instead of the actual ischemia/reperfusion of the splanchnic region. The low-molecular weight (2 ml) as well whole homogenate (2 ml) were tested for their ability to induce hypotension and cause circulatory shock. The ability of Futhan to counter the effects of the injection of pancreatic homogenate was also tested as in the SAO shock protocol. At the termination of these experiments arterial blood was drawn for the determination of plasma peroxide concentration using the peroxide electrode measurement technique.

[4] = pH and solubility of Futhan; type: physicochemical
Method: The reasons for the ineffectiveness of Futhan in ameliorating SAO shock in initial experiments appeared to be due to the pH of Futhan in solution, which is approximately 3.5 at the concentration of I mg/ml in 5% glucose-deionized (DI) water as per the manufacturer's instructions. Under the established protocol, approximately 2 ml of this solution were injected at the rate of 0.05 ml every 5 minutes into an approximate rat blood volume of 20 ml. In sham-shocked animals (not reported here) the buffering capacity of blood is able to absorb any perturbations in pH. In shocked animals, however, the pH buffering capacity, especially of the pancreas and small intestine, is severely compromised. Thus, the injection of Futhan would contribute to irreversible acidosis. […] Although the animals recovered from these transient depressions of MAP, Futhan injected animals typically expressed a lower MAP than the saline-injected group. This difference was not significant.

[5] = tested on: neutrophils; conditions: cited from earlier work

CS(=O)(=O)O.CS(=O)(=O)O.N=C(N)Nc1ccc(C(=O)Oc2ccc3cc(C(=N)N)ccc3c2)cc1 [Futhan, 6-amidino-2-naphthyl p-guanidinobenzoate dimethanesulfonate]
effect of Futhan on neutrophil activation in shear-stress test ([1]; 10 μl Futhan 0.05 and 0.13 mg/ml in 5% glucose + 10 μl pig pancreatic homogenate + 80 μl cells): slightly pro-inflammatory effect | complete response to shear stress of Futhan-treated neutrophils ([1]; Futhan 0.05 and 0.13 mg/ml + pig pancreatic homogenate): no Futhan-treated neutrophil exhibited a complete response | MAP and survival time, small bolus regimen ([2]; 0.05 ml bolus every 5 minutes, 1, 3.3, 10, 20 mg Futhan/kg body wt, pretreatment 30 or 60 min): uniformly unable to restore MAP or increase survival times | blood pressure effect of Futhan injection ([2]; 0.05 ml doses): transient hypotension | mean arterial pressure after removal of arterial clamps ([2]; Futhan 3.3 mg/kg body wt/hour i.v. infusion pump, 60 min pretreatment, vs saline): significant reduction in the fall of blood pressure | survival / mortality after SAO shock ([2]; Futhan 3.3 mg/kg body wt/hour infusion, 60 min pretreatment, vs saline controls, dimethanesulfonate): significant increase in survival; also recorded: prevented mortality | circulating plasma peroxide after SAO shock ([2]; Futhan 3.3 mg/kg body wt/hour infusion, vs control animals): significantly lower levels of circulating peroxide production | plasma peroxide formation after SAO shock, small bolus regimen ([2]; initial experiments, bolus injections): ineffective | mortality after pancreatic homogenate injection in Futhan-pretreated rats ([3]; 60 minute post-injection observation period, Futhan 3.3 mg/kg body wt/hr): None of the Futhan-treated group died | MAP after pancreatic homogenate injection in Futhan-pretreated rats ([3]; Futhan 3.3 mg/kg body wt/hr): MAP returned to nearly initial values | blood pressure effect of Futhan infusion pretreatment ([3]; infusion pump 3.3 mg/kg body wt/hr): depression of MAP | pH of Futhan in solution ([4]; I mg/ml in 5% glucose-deionized (DI) water): approximately 3.5 | solubility ([4]; alcohol, rat serum, DMSO, balanced Tris (Trizma) buffer at physiologic pH): insoluble | free radical scavenging [5]: does not possess any free radical scavenging effects | zymosan-induced chemiluminescence activation by neutrophils ([5]; in vitro): inhibited zymosan-induced chemiluminescence activation by neutrophils
